Results taken from ChEMBL document CHEMBL4406797, “Histone acetyltransferase inhibitors: An overview in synthesis, structure-activity relationship and molecular mechanism” (Eur J Med Chem, 2019).
≈ marks a conversion by molar mass, not a printed value.

Tests used:
[1] = target: CREB-binding protein (Homo sapiens, UniProt Q92793); assay: Inhibition of recombinant CBP (unknown origin) at 500 uM using H3 peptide as substrate after 30 mins in presence of acetyl-CoA by fluorescence assay relative to control
Sequence of CREB-binding protein (Q92793 2-2442 limits assumed): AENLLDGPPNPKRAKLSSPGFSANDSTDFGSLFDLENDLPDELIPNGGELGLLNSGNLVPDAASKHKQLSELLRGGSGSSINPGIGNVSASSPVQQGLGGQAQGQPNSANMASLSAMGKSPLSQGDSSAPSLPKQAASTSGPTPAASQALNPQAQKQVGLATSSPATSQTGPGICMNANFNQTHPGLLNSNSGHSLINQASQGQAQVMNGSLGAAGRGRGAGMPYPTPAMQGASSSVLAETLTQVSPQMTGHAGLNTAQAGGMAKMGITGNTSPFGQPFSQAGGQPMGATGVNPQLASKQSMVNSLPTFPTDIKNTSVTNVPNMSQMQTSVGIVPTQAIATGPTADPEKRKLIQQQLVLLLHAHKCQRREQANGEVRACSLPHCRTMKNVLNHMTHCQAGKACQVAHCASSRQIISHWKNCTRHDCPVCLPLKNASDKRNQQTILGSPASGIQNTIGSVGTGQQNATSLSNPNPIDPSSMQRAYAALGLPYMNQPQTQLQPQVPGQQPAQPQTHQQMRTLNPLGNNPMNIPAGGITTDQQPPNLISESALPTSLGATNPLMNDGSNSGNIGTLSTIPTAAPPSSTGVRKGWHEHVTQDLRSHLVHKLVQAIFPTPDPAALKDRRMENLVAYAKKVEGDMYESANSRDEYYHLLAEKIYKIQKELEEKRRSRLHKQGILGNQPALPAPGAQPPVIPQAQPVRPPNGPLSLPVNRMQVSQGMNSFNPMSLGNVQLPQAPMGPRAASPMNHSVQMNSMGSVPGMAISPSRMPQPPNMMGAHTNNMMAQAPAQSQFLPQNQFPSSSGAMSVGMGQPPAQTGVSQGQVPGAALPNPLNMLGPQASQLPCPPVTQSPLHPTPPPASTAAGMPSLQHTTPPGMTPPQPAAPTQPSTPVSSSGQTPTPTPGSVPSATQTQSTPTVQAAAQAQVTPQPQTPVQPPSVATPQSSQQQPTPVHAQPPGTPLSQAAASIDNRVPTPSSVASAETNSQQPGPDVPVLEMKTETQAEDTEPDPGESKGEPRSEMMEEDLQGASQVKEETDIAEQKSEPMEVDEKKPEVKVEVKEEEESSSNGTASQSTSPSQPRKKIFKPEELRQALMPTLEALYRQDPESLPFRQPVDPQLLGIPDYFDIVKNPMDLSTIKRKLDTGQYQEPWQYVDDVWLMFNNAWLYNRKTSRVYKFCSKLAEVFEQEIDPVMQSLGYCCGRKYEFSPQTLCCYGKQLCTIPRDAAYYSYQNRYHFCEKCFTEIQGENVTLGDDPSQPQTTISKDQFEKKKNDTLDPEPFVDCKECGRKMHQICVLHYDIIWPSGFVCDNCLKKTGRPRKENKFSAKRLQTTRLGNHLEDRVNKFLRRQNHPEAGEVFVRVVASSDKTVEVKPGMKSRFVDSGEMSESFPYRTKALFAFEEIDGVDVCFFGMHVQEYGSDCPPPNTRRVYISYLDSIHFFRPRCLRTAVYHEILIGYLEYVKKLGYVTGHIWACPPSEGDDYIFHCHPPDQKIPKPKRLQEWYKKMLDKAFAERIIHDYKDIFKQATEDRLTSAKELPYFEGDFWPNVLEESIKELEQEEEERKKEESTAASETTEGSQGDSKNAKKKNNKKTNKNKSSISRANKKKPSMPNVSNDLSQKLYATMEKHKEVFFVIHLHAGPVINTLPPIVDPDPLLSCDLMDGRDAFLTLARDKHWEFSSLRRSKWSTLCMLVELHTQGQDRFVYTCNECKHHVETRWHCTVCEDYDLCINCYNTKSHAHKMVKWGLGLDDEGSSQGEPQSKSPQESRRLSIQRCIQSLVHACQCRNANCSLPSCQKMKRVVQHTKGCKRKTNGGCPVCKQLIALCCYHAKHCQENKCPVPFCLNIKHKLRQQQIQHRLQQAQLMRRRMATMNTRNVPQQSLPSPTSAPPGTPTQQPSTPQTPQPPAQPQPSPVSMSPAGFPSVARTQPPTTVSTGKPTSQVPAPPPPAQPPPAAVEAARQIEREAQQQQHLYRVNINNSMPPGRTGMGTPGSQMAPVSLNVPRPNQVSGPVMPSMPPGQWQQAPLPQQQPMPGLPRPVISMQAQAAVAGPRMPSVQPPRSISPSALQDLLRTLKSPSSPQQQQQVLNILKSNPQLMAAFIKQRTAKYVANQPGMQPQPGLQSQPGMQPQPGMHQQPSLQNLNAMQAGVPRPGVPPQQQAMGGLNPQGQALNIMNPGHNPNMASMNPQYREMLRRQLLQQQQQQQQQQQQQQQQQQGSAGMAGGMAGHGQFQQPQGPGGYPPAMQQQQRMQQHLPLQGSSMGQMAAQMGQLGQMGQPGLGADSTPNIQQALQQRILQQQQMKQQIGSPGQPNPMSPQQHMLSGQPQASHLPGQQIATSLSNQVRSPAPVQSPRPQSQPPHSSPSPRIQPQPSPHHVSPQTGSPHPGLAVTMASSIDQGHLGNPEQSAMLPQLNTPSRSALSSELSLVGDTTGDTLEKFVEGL

[2] = target: T1, Histone acetyltransferase p300 (Homo sapiens, UniProt Q09472); assay: Displacement of [3H]-acetyl-CoA from P300 (unknown origin) using peptide as substrate after 60 mins
T1 sequence (Q09472 whole entry): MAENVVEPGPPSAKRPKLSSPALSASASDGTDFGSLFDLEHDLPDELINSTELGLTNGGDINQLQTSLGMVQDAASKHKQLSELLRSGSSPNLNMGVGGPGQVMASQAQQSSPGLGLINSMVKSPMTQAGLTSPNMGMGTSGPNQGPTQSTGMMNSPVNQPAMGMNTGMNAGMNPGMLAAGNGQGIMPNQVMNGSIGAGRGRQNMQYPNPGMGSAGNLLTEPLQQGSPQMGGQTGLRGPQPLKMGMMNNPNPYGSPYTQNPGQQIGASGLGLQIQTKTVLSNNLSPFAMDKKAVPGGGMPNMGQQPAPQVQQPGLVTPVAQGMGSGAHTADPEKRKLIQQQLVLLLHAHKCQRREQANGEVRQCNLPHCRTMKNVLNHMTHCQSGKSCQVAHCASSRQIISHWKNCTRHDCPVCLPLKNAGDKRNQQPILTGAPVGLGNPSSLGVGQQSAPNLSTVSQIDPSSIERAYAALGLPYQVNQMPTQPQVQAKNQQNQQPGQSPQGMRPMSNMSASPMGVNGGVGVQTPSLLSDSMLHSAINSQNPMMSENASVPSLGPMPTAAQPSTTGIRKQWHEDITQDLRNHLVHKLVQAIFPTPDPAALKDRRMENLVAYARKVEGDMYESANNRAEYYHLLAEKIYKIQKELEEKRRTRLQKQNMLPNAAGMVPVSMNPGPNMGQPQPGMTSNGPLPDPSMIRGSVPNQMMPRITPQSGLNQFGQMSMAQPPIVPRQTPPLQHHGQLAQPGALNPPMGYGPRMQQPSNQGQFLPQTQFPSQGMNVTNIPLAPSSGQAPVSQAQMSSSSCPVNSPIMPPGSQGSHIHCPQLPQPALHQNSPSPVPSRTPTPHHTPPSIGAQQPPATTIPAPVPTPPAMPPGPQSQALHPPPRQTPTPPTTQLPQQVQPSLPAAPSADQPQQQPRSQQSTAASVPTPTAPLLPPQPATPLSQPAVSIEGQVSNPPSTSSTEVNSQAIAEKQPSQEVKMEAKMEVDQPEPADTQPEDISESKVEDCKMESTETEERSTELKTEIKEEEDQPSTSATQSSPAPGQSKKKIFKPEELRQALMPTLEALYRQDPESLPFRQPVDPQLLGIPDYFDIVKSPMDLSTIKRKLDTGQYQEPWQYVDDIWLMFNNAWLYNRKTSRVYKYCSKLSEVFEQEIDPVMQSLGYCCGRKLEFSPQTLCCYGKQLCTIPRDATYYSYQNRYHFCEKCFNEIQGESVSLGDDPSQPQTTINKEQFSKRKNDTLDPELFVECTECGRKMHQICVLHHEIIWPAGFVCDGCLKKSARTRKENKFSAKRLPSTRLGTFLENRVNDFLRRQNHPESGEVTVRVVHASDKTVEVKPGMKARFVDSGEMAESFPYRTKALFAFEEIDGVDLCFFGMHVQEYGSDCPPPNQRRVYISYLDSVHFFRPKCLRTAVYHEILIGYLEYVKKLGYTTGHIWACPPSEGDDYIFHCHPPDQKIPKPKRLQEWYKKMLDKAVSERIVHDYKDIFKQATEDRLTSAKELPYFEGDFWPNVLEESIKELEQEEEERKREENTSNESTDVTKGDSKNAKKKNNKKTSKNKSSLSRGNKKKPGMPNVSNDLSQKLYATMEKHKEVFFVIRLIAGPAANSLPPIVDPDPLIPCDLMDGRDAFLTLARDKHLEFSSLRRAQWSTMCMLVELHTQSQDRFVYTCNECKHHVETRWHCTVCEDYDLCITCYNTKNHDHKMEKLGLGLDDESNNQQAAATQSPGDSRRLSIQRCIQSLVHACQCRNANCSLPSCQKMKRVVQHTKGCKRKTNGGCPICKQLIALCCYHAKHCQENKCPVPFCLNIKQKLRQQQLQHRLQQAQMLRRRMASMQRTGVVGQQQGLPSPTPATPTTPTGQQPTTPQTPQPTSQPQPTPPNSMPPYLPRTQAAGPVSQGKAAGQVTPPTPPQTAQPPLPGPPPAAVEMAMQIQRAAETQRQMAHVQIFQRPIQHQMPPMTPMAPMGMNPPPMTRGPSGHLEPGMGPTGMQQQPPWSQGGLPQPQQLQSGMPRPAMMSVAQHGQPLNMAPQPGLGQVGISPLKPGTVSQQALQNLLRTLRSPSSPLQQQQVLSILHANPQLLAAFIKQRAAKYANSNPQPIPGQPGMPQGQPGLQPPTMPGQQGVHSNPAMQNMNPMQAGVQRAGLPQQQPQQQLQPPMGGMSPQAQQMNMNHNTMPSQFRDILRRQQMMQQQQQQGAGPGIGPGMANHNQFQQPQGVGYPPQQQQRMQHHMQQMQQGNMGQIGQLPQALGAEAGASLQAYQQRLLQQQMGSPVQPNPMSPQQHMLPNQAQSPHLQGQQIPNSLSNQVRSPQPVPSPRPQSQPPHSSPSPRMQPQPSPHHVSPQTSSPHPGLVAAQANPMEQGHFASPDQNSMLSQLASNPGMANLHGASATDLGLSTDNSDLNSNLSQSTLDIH

[3] = target: T1, Histone acetyltransferase p300; assay: Displacement of [3H]-acetyl-CoA from recombinant GST-tagged P300 (unknown origin) by scintillation counting analysis
[4] = test system: HeLa; assay: Cytotoxicity against human HeLa cells assessed as reduction in cell viability by SRB assay; assay type: functional, cell-based
[5] = test system: HCT cell line; assay: Cytotoxicity against human HCT cells assessed as reduction in cell viability by SRB assay; assay type: functional, cell-based
[6] = test system: Hep 3B2; assay: Cytotoxicity against human Hep3B cells assessed as reduction in cell viability by SRB assay; assay type: functional, cell-based
[7] = test system: MDA-MB-231; assay: Cytotoxicity against human MDA-MB-231 cells assessed as reduction in cell viability by SRB assay; assay type: functional, cell-based
[8] = test system: HT-29; assay: Cytotoxicity against human HT-29 cells assessed as reduction in cell viability by SRB assay; assay type: functional, cell-based
[9] = test system: A549; assay: Cytotoxicity against human A549 cells assessed as reduction in cell viability by SRB assay; assay type: functional, cell-based
[10] = target: T1, Histone acetyltransferase p300; assay: Inhibition of P300 (unknown origin)
[11] = target: CREB-binding protein/Histone acetyltransferase p300 (Homo sapiens, UniProt Q09472+Q92793); assay: Inhibition of p300 (unknown origin)/CBP (unknown origin); assay type: protein assay
[12] = target: Histone acetyltransferase KAT5 (Homo sapiens, UniProt Q92993); assay: Displacement of [3H]-acetyl-CoA from recombinant Tip60 (unknown origin) at 150 uM using H4-20 as substrate after 5 mins by scintillation counting analysis relative to control
[13] = target: T1, Histone acetyltransferase p300; assay: Displacement of [3H]-acetyl-CoA from recombinant P300 (unknown origin) at 150 uM using H4-20 as substrate after 5 mins by scintillation counting analysis relative to control
[14] = target: T2, Histone acetyltransferase ESA1 (Saccharomyces cerevisiae (strain ATCC 204508 / S288c) (Baker's yeast)) (UniProt Q08649); assay: Displacement of [3H]-acetyl-CoA from recombinant yeast ESA1 at 150 uM using H4-20 as substrate after 5 mins by scintillation counting analysis relative to control
T2 sequence (whole entry): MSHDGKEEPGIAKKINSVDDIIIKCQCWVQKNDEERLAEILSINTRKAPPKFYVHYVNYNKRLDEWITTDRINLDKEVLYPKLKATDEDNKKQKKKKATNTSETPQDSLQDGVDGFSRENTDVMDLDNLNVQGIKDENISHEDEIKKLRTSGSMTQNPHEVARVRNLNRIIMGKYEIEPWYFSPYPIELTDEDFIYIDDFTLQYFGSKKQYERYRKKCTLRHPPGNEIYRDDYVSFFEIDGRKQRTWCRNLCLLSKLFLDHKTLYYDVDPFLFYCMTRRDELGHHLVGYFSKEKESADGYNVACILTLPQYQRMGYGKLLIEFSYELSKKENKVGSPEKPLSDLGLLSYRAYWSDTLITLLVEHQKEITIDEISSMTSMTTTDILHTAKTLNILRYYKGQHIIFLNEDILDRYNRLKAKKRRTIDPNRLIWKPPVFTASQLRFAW

[15] = target: T3, Histone acetyltransferase KAT2B (Homo sapiens, UniProt Q92831); assay: Displacement of [3H]-acetyl-CoA from recombinant PCAF (unknown origin) at >100 uM using H4-20 as substrate after 5 mins by scintillation counting analysis relative to control
[16] = test system: A549; assay: Cytotoxicity against human A549 cells after 48 hrs by MTT assay; assay type: functional, cell-based; conditions: A549, 48 h
[17] = target: T3, Histone acetyltransferase KAT2B; assay: Inhibition of recombinant GST-tagged PCAF (32 residues) (unknown origin) expressed in Escherichia coli assessed as reduction in H4K8 acetylation using radiolabelled acetyl-CoA as substrate after 20 mins by TopCount scintillation counting analysis relative to control
[18] = target: T3, Histone acetyltransferase KAT2B; assay: Inhibition of recombinant GST-tagged PCAF (32 residues) (unknown origin) expressed in Escherichia coli using radiolabelled acetyl-CoA as substrate after 20 mins by TopCount scintillation counting analysis
[19] = target: T3, Histone acetyltransferase KAT2B; assay: Inhibition of recombinant GST-tagged PCAF (32 residues) (unknown origin) expressed in Escherichia coli assessed as reduction in H3K9 acetylation using radiolabelled acetyl-CoA as substrate after 20 mins by TopCount scintillation counting analysis relative to control
[20] = target: T3, Histone acetyltransferase KAT2B; assay: Inhibition of PCAF (unknown origin) at 100 uM relative to control
[21] = target: T3, Histone acetyltransferase KAT2B; assay: Inhibition of PCAF (unknown origin) at 100 uM by CPM dye-based fluorescence assay relative to control
[22] = target: T1, Histone acetyltransferase p300; assay: Displacement of [3H]-acetyl-CoA from P300 in human HeLa cells using peptide as substrate after 3 hrs; assay type: cell-based
[23] = target: T1, Histone acetyltransferase p300; assay: Inhibition of human P300 (1284 to1673 residues) catalytic domain expressed in Escherichia coli by SPR analysis

O=C1/C(=C/c2ccc(O)c(Br)c2)CNC/C1=C\c1ccc(O)c(Br)c1
inhibition [1]: 85%

COc1cc2c(cc1OC)C[N+]1(Cc3ccccc3)CCCc3cc(OC)c(OC)cc3C1C2 (stereo not given)
IC50 [2]: < 10 µM

N=C(N)NCCC[C@@H]1NC(=O)/C(=C\c2ccc(O)c(OCC[C@H](NC(=O)C[C@](O)(CC(=O)O)C(=O)O)C(=O)O)c2)NC1=O (stereo in doubt)
IC50 [3]: 0.022 µM

Cc1cc(/C=C2\CCC/C(=C\c3cc(C)c(O)c(C)c3)C2=O)cc(C)c1O
inhibition [1]: 40%

CCCCCCCCCCCCCCCC(=O)Nc1ccccc1C(=O)Nc1ccc(C(=O)O)cc1
IC50 [4]: 25 to 50 µM | IC50 [5]: 25 to 50 µM | IC50 [6]: 25 to 50 µM | IC50 [7]: 25 to 50 µM | IC50 [8]: 25 to 50 µM | IC50 [9]: 25 to 50 µM

COc1cc2c(cc1OC)-c1cc3ccc(OC)c(OC)c3c[n+]1CCC2
IC50 [2]: 0.42 µM

C#CCNCCCCCOc1ccc2nc(C)c(C(=O)OCC)cc2c1
IC50 [10]: 57.5 µM

COc1ccc2c(c1OC)C[N+]1(Cc3ccccc3)CCCc3cc4c(cc3C1C2)OCO4 (stereo not given)
IC50 [2]: 1.8 to 44 µM

Oc1cc(O)c2cc(O)c(-c3cc(O)c(O)c(O)c3)[o+]c2c1.[Cl-] [DELPHINIDIN CHLORIDE]
IC50 [11]: 30 µM

COc1ccc(C2CC(c3cccs3)=NN2c2nc(-c3ccc(N4C(=O)c5ccccc5C4=O)cc3)cs2)cc1OC (stereo not given)
inhibition [12]: 50% | inhibition [13]: 50% | inhibition [14]: 50% | inhibition [15]: 50%

COc1cc(OC)cc(C(=O)Nc2ccc3c(C)c(C(=O)c4cc(OC)ccc4OC)oc3c2)c1
IC50 [16]: 58.3 µg/mL (≈ 123 µM)

COc1cc2c(cc1OC)-c1cc3ccc(OC)c(OCc4ccccc4)c3c[n+]1CCC2
IC50 [2]: < 10 µM

CCOC(=O)C1C/C(=C\c2ccc(O)c(Br)c2)C(=O)/C(=C/c2ccc(O)c(Br)c2)C1 (stereo not given)
inhibition [1]: 85%

CCCCCCCCCCCCCC(=O)Nc1ccccc1C(=O)Nc1ccc(C(=O)O)cc1
IC50 [4]: 25 to 50 µM | IC50 [5]: 25 to 50 µM | IC50 [6]: 25 to 50 µM | IC50 [7]: 25 to 50 µM | IC50 [8]: 25 to 50 µM | IC50 [9]: 25 to 50 µM

CCCCCCCCCCCCCCCC(=O)Nc1ccccc1C(=O)Nc1cccc(C(=O)O)c1
IC50 [4]: 25 to 50 µM | IC50 [5]: 25 to 50 µM | IC50 [6]: 25 to 50 µM | IC50 [7]: 25 to 50 µM | IC50 [8]: 25 to 50 µM | IC50 [9]: 25 to 50 µM

O=c1cc(Cl)sn1-c1ccc([N+](=O)[O-])cc1
inhibition [17]: 55.5% | IC50 [18]: 2.2 µM | inhibition [19]: 38.6%

CCCCCCCCCCCCCC(=O)Nc1ccccc1C(=O)Nc1cccc(C(=O)O)c1
IC50 [4]: 25 to 50 µM | IC50 [5]: 25 to 50 µM | IC50 [6]: 25 to 50 µM | IC50 [7]: 25 to 50 µM | IC50 [8]: 25 to 50 µM | inhibition [20]: 79% | IC50 [9]: 25 to 50 µM | inhibition [21]: 79%

CCCCC[C@H](O)C/C=C1/C(=O)C=C[C@@H]1C/C=C/CCCC(=O)O
IC50 [22]: 0.75 µM | IC50 [10]: 0.75 µM

COc1cc2c(cc1OC)C[N+]1(Cc3ccccc3)CCCc3cc4c(cc3C1C2)OCO4 (stereo not given)
IC50 [2]: 1.8 to 44 µM

CCCCCCCCCCCCCCC=C(C(=O)O)C(=O)O
IC50 [23]: 1.1 µM

O=C1/C(=C/c2cccc(Br)c2)CCC/C1=C\c1cccc(Br)c1
inhibition [1]: > 80%

COc1cc2c(cc1OC)C1Cc3ccc(OC)c(OC)c3C[N+]1(Cc1ccccc1)CCC2 (stereo not given)
IC50 [2]: < 10 µM
